# Experiments:
# 5-HT2A receptor = 5-HT2A receptor (Homo sapiens (Human), UniProt P28223); test: Competitive 5-HT2A receptor binding assay (3H-Ketanserin, CHO-5-HT2A membrane)
# Procedure: 1) Preparation of CHO-5-HT2A Receptor Membrane
# The precipitate was collected, and the supernatant was discarded. The solution B was added into the precipitate. […] The supernatant was carefully discarded, and the solution B was added into the precipitate again. […] The precipitate obtained was stored at −80° C.
# 1) Competitive 5-HT2A Receptor Binding Assay
# Step 2: 100 μL of the membrane preparation was added into each reaction tube.
# After the filtration, the filter membrane was dried at 60° C. and added into a scintillation disc attached with a bottom membrane, which was then added with 40 μL of scintillation liquid, sealed with a top membrane, and left to stand.
# [1] = system: MPTP+MK-801-induced Parkinson's disease mouse model; test: MPTP+MK-801-induced Parkinson's disease mouse model (anti-PDP efficacy model); type: in vivo; settings: ip, mice, intraperitoneal, read-out: PDP efficacy (high activity) ED50
# Procedure: 1.1 Effect on MPTP+MK-801-induced Parkinson's disease mouse model (anti-PDP efficacy model)
# Animals were injected with different doses of MPTP(1-methyl-4-phenyl-1,2,3,6-tetrahydropyridine) intraperitoneally every morning for 5 consecutive days. […] Then, after an interval of 0.25 h, the mice were placed into an autonomous activity test box (a black polyethylene box with the specification of 29 cm×29 cm×30 cm) for video recording for 20 min. Video analysis was performed after the video recording to evaluate the activity of the mice.
# [2] = system: DOI-induced head shaking behavior of mice; test: DOI-induced head shaking (head thrust) test in mice; type: in vivo; settings: Mus musculus, intragastric, DOI 1 mg/kg i.p., 0-20 min, read-out: ED50 for inhibiting the DOI-induced head shaking behavior
# Procedure: 1. Head Thrust Test in Mice
# Mice were stratified according to body weight and then randomly divided into a model control group, a blank control group and drug administration groups. 1 h after the intragastric administration of a vehicle or a drug, the animals were placed in a beaker (with the diameter of 13 cm and the height of 19 cm) paved with fresh padding, and were injected with a modeling drug DOI ((±)-1-(2,5-dimethoxy-4-iodophenyl)-2-aminopropane hydrochloride or (±)-2,5-dimethoxy-4-iodoamphetamine hydrochloride) intraperitoneally at a dose of 1 mg/kg. The head shaking times of the mice during the 0-20 min after the intraperitoneal injection of DOI were recorded. The head shaking behavior is defined as a rapid rotational twitching or wet dog-like shaking of the mouse head, which is distinguished from normal grooming or exploring behavior.
# Sequence of 5-HT2A receptor (P28223 whole entry): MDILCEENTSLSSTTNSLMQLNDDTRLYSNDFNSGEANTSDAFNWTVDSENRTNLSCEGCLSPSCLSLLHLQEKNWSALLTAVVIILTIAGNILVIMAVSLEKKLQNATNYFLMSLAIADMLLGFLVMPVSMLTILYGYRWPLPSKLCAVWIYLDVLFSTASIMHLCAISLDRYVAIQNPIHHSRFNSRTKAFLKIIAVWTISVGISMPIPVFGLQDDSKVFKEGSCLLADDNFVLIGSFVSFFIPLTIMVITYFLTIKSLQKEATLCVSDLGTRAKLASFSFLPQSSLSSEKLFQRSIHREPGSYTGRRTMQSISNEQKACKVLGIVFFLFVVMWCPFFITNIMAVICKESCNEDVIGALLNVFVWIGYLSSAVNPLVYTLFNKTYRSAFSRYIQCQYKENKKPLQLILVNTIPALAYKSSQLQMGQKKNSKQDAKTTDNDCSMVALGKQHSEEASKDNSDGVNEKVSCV
smiles,measurement,setting,value
"CC(C)COc1ccc(CN2Cc3ccc(F)cc3CN(C3CCN(C)CC3)C2=O)cc1 [NH-K-A19005, 8-fluoro-2-(1-methylpiperidin-4-yl)-4-[[4-(2-methylpropoxy)phenyl]methyl]-1,5-dihydro-2,4-benzo diazepine-3-one]",Ki,"5-HT2A receptor; CHO-5-HT2A membrane, 3H-Ketanserin, read-out: 5-HT2A (Ki value)",0.429 nM
same,2C/2A,5-HT2A receptor; ratio of 5-HT2C Ki to 5-HT2A Ki,7.907
same,ED50,[1],1.85 mg/kg
same,ED50,[2],0.15 mg/kg
